Counter-ions that a name gives are not always drawn. Like-named read-outs stand apart in the source and are kept apart here.
How the values were obtained:
[1] = system: 15 types of human cancer cells; test: Cell growth inhibition test, MTT, average GI 50; format: cell-based; settings: average of 15 human cancer cell types, 48 hours exposure
Experimental: Appropriate amounts of each of the human cancer cells suspended in 5% fetal bovine serum-supplemented medium were plated into a 96-well plate, and allowed to adhere to the wells in a 37° C. CO2 incubator overnight.
These cancer cells were exposed to each anticancer agent for 48 hours. Cell growth was assayed by MTT. Absorbance of the control well (C) and the test well (T) was measured at 550 nm.
The absorbance of the test well immediately after adding the drug (TO) was also measured. Using these measured values, GI 50 of each drug was calculated, and the drug concentration at that time was obtained. For comparison, a similar test was performed for each of the anticancer agents (Comparative Tests 4-1 to 4-7).

in vivo [2] = settings: BDF1, mouse, sc
A549 lung cancer cells = test: Antitumor test, transplanted tumor in nude mice; format: in vivo, human; settings: control, drug without hydroxyapatite adsorption
From the text: (§1) (Experimental Test 5-1 to 5-5).
(§2) Female nude mice (7 weeks old, 16 to 22 g) with a BALB/c genetic background were used for the tests. Human cancer cells used for the tests were GCIY stomach cancer cells, HCT-15 colon cancer cells, A549 lung cancer cells, and OVCAR-3 ovarian cancer cells. Human cancer cells were subcutaneously transplanted into nude mice, tumor lumps were formed, and these carcinomas were used for the tests.
(§3) Aseptically collected tumors were sliced into tumors of 3×3×3 mm, and then subcutaneously transplanted into a new nude mouse. When the tumors reached a volume of 100 to 300 mm^3, the animals were arbitrarily divided into groups of six (Day 0). […] Intravascular administration was the administration route for all.
(§4) After administration, between Days 24 to 31, the length (L) and width (W) of the tumor lump of the animal were measured twice a week, and the tumor volume (TV) was calculated according to the following formula: TV=(L×W^2)/2. Antitumor effect was determined at Day 14. The relative tumor volume (RTV) was obtained by the following formula: RTV=TV14/TV0, using values of the tumor volume at Day 0 and Day 14 (referred to as TV0 and TV14). Antitumor effect was evaluated as the tumor regression rate at Day 14 (T/C%). Herein, T/C %=100×(average RTV of the treated group)/(RTV of the control group).
(§5) As a control, each drug was tested without hydroxyapatite adsorption (Comparative Tests 5-10 to 5-14).

[3] = system: GCIY stomach cancer cells; test: Antitumor test, transplanted tumor in nude mice; format: in vivo, human; settings: control, drug without hydroxyapatite adsorption
From the text: as §1, §2, §3, §4, §5

[4] = system: HCT-15 colon cancer cells; test: Antitumor test, transplanted tumor in nude mice; format: in vivo, human; settings: control, drug without hydroxyapatite adsorption
From the text: as §1, §2, §3, §4, §5

[5] = system: OVCAR-3 ovarian cancer cells; test: Antitumor test, transplanted tumor in nude mice; format: in vivo, human; settings: control, drug without hydroxyapatite adsorption
From the text: as §1, §2, §3, §4, §5

C57BL/6 male mouse = settings: one-time, 14 days observation
in vivo [6] = settings: male, C57BL/6, mouse
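Throughout, for deaths versus administered animals: mice given a single dose and followed for 14 days, with deaths tallied, LD50 derived from the doses given and the resulting death counts.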

Structure (SMILES) | GI50 [1] | LD50 (in vivo [2]) | Regression rate of transplanted cancer (T/C %) at Day 14 (A549 lung cancer cells) | Regression rate of transplanted cancer (T/C %) at Day 14 [3] | Regression rate of transplanted cancer (T/C %) at Day 14 [4] | Regression rate of transplanted cancer (T/C %) at Day 14 [5] | deaths versus administered animals (C57BL/6 male mouse; 50 mg/kg intravascular) | deaths versus administered animals (C57BL/6 male mouse; 100 mg/kg intravascular) | deaths versus administered animals (C57BL/6 male mouse; 150 mg/kg intravascular) | deaths versus administered animals (C57BL/6 male mouse; 200 mg/kg intravascular) | deaths versus administered animals (C57BL/6 male mouse; 250 mg/kg intravascular) | deaths versus administered animals (C57BL/6 male mouse; 300 mg/kg intravascular) | deaths versus administered animals (C57BL/6 male mouse; 350 mg/kg intravascular) | deaths versus administered animals (C57BL/6 male mouse; 400 mg/kg intravascular) | LD50 (in vivo [6]) | deaths versus administered animals (C57BL/6 male mouse; 1.0 mg/kg intravascular) | deaths versus administered animals (C57BL/6 male mouse; 1.5 mg/kg intravascular) | deaths versus administered animals (C57BL/6 male mouse; 2.0 mg/kg intravascular) | deaths versus administered animals (C57BL/6 male mouse; 3.0 mg/kg intravascular) | deaths versus administered animals (C57BL/6 male mouse; 3.5 mg/kg intravascular)
COc1cccc2c1C(=O)c1c(O)c3c(c(O)c1C2=O)C[C@@](O)(C(=O)CO)C[C@@H]3O[C@H]1C[C@H](N)[C@H](O)[C@H](C)O1 [Doxorubicin] | 72 nM | 10 mg/kg |  |  |  |  |  |  |  |  |  |  |  |  |  |  |  |  |  | 
O=c1[nH]cc(F)c(=O)[nH]1 [Fluorouracil] | 36800 nM |  | 117% | 69% | 59% | 74% | 0/5 | 1/5 | 1/5 | 2/5 | 2/6 | 3/5 | 5/6 | 6/6 | 244 mg/kg |  |  |  |  | 
Cc1ncc(CNC(=O)N(CCCl)N=O)c(N)n1 [Nimustine hydrochloride] |  | 50 mg/kg |  |  |  |  |  |  |  |  |  |  |  |  |  |  |  |  |  | 
CC[C@]1(O)C[C@H]2CN(CCc3c([nH]c4ccccc34)[C@@](C(=O)OC)(c3cc4c(cc3OC)N(C=O)[C@H]3[C@@](O)(C(=O)OC)[C@H](OC(C)=O)[C@]5(CC)C=CCN6CC[C@]43[C@@H]65)C2)C1 [Vincristine sulfate] | 3.6 nM |  | 76% | 81% | 101% | 79% |  |  |  |  |  |  |  |  | 1.98 mg/kg | 0/5 | 2/5 | 3/8 | 7/8 | 8/8
